Reference: US6444685B1, “N-(4-sulfonylaryl)Cyclylamine 2-hydroxyethylamines as beta-3 adrenergic receptor agonists” (Wyeth, priority 2000, dated 2002)
Where a name gives a salt, the structure may show the parent alone.

Columns and labels:
[1] = biological target: T1, human β3 adrenergic receptor (Homo sapiens, UniProt P13945); experiment: cAMP accumulation (SPA) in CHO cells transfected with human β3 adrenergic receptor; assay type: cell-based; settings: for EC50: CHO cells expressing human β3-AR, cAMP, 30 min incubation, 10^−9 M to 10^−5 M, read-out: beta-3 EC50; for beta-3 (IA) maximal response relative to isoproterenol: IA = % activity compound / % activity isoproterenol at 10^−5 M, CHO human β3 cells
T1 construct: Full length β3 AR clones (402 amino acids) containing the last 6 amino acids of hβ3— AR are prepared; expressed in transfected cells; host or cells: CHO cells
Protocol: (§1) The ability of compounds of this invention to treat or inhibit disorders related to insulin resistance or hyperglycemia was established with representative compounds of this invention in the following standard pharmacological test procedures, which measured the binding selectivity to the β1, β2, and β3 adrenergic receptors. Binding to the receptors was measured in Chinese Hamster ovary (CHO) cells that were transfected with adrenergic receptors. The following briefly summarizes the procedures used and results obtained.
Cloning of Human β3-AR Genomic DNA: cDNA was constructed by ligating four polymerase chain reaction (PCR) products using the following primers: an ATG-Narl fragment, sense primer 5′-[…]3′ and anti-sense primer 5′[…]3′; a Narl-Accl fragment, 5′[…]3′ as sense and 5′[…]3′ as anti-sense primer; an Accli-Styl fragment, sense primer 5′[…]3′ and anti-sense primer 5′[…]3′ and a Styl-TAG fragment, with sense primer 5′[…]3′ and anti-sense primer 5′[…]3′. The corresponding primer sequences are described in Mantzoros, C. S., et.al., Diabetes 45: 909-914 (1996). The four fragments are ligated into a pUC 18 plasmid (Gibco-BRL) and sequenced. Full length β3 AR clones (402 amino acids) containing the last 6 amino acids of hβ3— AR are prepared with the β3-βARpcDNA3from ATTC.
(§2) Binding Procedure: Clones expressing receptor levels of 70 to 110 fmoles/mg protein were used in the test procedures. CHO cells were grown in 24-well tissue culture plates in Dulbecco's Modified Eagle Media with 10% fetal bovine serum, MEM non-essential amino acids, Penicillin-Streptompycin and Geneticin. On the day of test procedure, growth medium was replaced with preincubation media (Dulbecco's Modified Eagle Media and incubated for 30 minutes at 37° C. Preincubation medium was replaced with 0.2 ml treatment medium containing DMEM media containing 250 μM IBMX (isobutyl-1-methylxantine) plus 1 mM ascorbic acid with test compound dissolved in DMSO. Test compounds were tested over a concentration range of 10^−9 M to 10^−5 M for β3 cells and 10^−8 to 10^−4 M for β1 and β2 transfected cells. Isoproterenol (10^−5 M) was used as an internal standard for comparison of activity. Cells were incubated at 37° C. on a rocker for 30 min with the β3 cells and 15 min for β1 and β2 cells. Incubation was stopped with the addition of 0.2N HCl and neutralized with 2.5N NaOH. The plates, containing the cells and neutralized media, were stored at −20 degrees celsius until ready to test for cAMP using the SPA test kit (Amersham).
(§3) Data Analysis and Results: Data collected from the SPA test procedure were analyzed as per cent of the maximal isoproterenol response at 10^−5 M. Activity curves were plotted using the SAS statistical and graphics software. EC50 values were generated for each compound and the maximal response (IA) developed for each compound is compared to the maximal response of isoproternol at 10^−5 M from the following formula:
(§4) IA=% activity compound/% activity isoproterenol

[2] = biological target: T2, human β2-adrenergic receptor (Homo sapiens, UniProt P07550); experiment: cAMP accumulation (SPA) in CHO cells transfected with human β2 adrenergic receptor; assay type: cell-based; settings: for EC50: CHO cells transfected with human β2-AR, cAMP, 15 min incubation, 10^−8 to 10^−4 M, read-out: beta-2 EC50; for beta-2 (IA) maximal response relative to isoproterenol: IA = % activity compound / % activity isoproterenol at 10^−5 M, CHO human β2 cells
T2 construct: expressed in transfected cells; host or cells: CHO cells
Protocol: as §1
(§5) Transfection of CHO cells with β1 and β2 adrenergic receptors: CHO cells were transfected with human β1- or β2-adrenergic receptors as described in Tate, K. M., Eur. J. Biochem., 196:357-361 (1991).
as §2, §3, §4

[3] = biological target: T3, human β1-adrenergic receptor (Homo sapiens, UniProt P08588); experiment: cAMP accumulation (SPA) in CHO cells transfected with human β1 adrenergic receptor; assay type: cell-based; settings: for EC50: CHO cells transfected with human β1-AR, cAMP, 15 min incubation, 10^−8 to 10^−4 M, read-out: beta-1 EC50; for beta-1 (IA) maximal response relative to isoproterenol: IA = % activity compound / % activity isoproterenol at 10^−5 M, CHO human β1 cells
T3 construct: expressed in transfected cells; host or cells: CHO cells
Protocol: as §1, §5, §2, §3, §4

T2 sequence (P07550 whole entry): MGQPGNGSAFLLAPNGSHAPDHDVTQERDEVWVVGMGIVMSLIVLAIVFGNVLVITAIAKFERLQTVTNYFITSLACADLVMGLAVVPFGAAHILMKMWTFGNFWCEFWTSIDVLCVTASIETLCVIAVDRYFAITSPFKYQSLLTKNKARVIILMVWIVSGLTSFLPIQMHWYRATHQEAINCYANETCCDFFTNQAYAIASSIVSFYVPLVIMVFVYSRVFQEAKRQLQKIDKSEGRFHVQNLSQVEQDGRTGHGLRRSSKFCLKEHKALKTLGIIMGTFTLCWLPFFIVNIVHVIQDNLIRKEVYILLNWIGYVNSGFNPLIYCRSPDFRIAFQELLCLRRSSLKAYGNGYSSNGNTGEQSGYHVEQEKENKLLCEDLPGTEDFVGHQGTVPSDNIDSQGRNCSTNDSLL
T3 sequence (P08588 whole entry): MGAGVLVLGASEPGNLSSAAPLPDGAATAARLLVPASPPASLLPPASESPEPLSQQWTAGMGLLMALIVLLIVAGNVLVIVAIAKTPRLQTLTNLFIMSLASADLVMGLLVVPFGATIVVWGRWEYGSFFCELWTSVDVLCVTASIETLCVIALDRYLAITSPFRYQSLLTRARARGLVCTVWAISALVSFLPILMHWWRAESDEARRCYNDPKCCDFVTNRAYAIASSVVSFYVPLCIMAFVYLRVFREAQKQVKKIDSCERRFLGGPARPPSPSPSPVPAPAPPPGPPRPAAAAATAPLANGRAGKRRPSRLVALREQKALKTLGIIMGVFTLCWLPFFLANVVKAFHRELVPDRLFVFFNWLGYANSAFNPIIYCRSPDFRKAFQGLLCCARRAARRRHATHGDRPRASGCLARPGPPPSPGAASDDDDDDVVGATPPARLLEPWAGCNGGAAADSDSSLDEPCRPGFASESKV
T1 sequence (P13945 whole entry): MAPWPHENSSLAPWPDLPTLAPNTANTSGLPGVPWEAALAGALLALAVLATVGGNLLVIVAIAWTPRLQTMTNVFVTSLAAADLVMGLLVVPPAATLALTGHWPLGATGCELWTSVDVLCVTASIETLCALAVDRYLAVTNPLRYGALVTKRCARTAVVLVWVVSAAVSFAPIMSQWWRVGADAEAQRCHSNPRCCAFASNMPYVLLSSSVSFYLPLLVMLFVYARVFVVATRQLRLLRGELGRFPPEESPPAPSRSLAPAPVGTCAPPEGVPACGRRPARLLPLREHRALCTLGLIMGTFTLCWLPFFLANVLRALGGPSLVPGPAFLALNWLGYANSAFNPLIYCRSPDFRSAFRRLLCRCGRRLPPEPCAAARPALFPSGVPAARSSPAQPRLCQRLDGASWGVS

SMILES | melting point | EC50 [1] | beta-3 (IA) maximal response relative to isoproterenol [1] | EC50 [2] | beta-2 (IA) maximal response relative to isoproterenol [2] | EC50 [3] | beta-1 (IA) maximal response relative to isoproterenol [3]
CS(=O)(=O)Nc1cc([C@@H](O)CNC2CCN(c3ccc(S(=O)(=O)N(CC(=O)O)Cc4cc(F)ccc4F)cc3)CC2)ccc1O (as salt: salt) [Example 63, 2-{(2,5-Difluorobenzyl)[(4-{4-[((2R)-2-hydroxy-2-{4-hydroxy-3-[(methylsulfonyl)-amino]phenyl}ethyl)amino]-1-piperidinyl}phenyl)sulfonyl]amino}acetic acid] | 80 to 82 °C |  |  |  |  |  | 
CS(=O)(=O)Nc1cc([C@@H](O)CNC2CCN(c3ccc(S(=O)(=O)N4CCN(CC(=O)O)CC4)cc3)CC2)ccc1O (as salt: sodium) [Example 65] | 131 °C (dec.) |  |  |  |  |  | 
COc1ccc(NS(=O)(=O)c2ccc(N3CCC(NC[C@H](O)COc4ccc(OCc5ccccc5)cc4)CC3)cc2)cc1OC [Example 9, 4-{4-[(2S)-3-(4-Benzyloxy-phenoxy)-2-hydroxy-propylamino]-piperidin-1-yl}-N-(3,4-dimethoxy-phenyl)-benzenesulfonamide] | 113 to 121 °C |  |  |  |  |  | 
COc1ccc(NS(=O)(=O)c2ccc(N3CCC(NC[C@H](O)COc4cccc5[nH]c6ccccc6c45)CC3)cc2)cc1OC [Example 10, 4-{4-[(2S)-3-(9H-Carbazol-4-yloxy)-2-hydroxy-propylamino]-piperidin-1-yl}-N-(3,4-dimethoxy-phenyl)-benzenesulfonamide] | 58 to 64 °C | 100 nM | (0.45) |  |  |  | 
CS(=O)(=O)Nc1cc([C@@H](O)CNC2CCN(c3ccc(S(=O)(=O)N4CCCC4)cc3)CC2)ccc1O [Example 41, N-{2-Hydroxy-5-[(1R)-1-hydroxy-2-({1-[4-(1-pyrrolidinylsulfonyl)phenyl]-piperidinyl}-4-amino)ethyl]phenyl}methanesulfonamide] |  | 2 nM | (1) | 2000 nM | (0.24) | 800 nM | (0.58)
CS(=O)(=O)Nc1cc([C@@H](O)CNC2CCN(c3ccc(S(=O)(=O)N4CCCCC4)cc3)CC2)ccc1O [Example 42, N-{2-Hydroxy-5-[(1R)-1-hydroxy-2-({1-[4-(1-piperidinylsulfonyl)phenyl]-piperidinyl}-4-amino)ethyl]phenyl}methanesulfonamide] |  | 1 nM | (1) | 370 nM | (0.35) | 1320 nM | (0.69)
CS(=O)(=O)Nc1cc([C@@H](O)CNC2CCN(c3ccc(S(=O)(=O)N(CC(=O)O)Cc4cc(F)ccc4F)cc3)CC2)ccc1O [Example 63, 2-{(2,5-Difluorobenzyl)[(4-{4-[((2R)-2-hydroxy-2-{4-hydroxy-3-[(methylsulfonyl)-amino]phenyl}ethyl)amino]-1-piperidinyl}phenyl)sulfonyl]amino}acetic acid] |  | 5 nM | (0.91) |  | (0.15) | 10000 nM | (0.88)
CS(=O)(=O)Nc1cc([C@@H](O)CNC2CCN(c3ccc(S(=O)(=O)N4CCN(CC(=O)O)CC4)cc3)CC2)ccc1O [Example 65] |  | 160 nM | (0.93) | 16000 nM | (0.67) |  | (0.23)
CC(C)(C)OC(=O)CN(Cc1cc(F)ccc1F)S(=O)(=O)c1ccc(N2CCC(NC[C@H](O)c3ccc(O)c(NS(C)(=O)=O)c3)CC2)cc1 [Example 67, tert-Butyl {(2,5-difuorobenzyl)[(4-{4-[((2R)-2-hydroxy-2-{4-hydroxy-3-[(methylsulfonyl)amino]phenyl}ethyl)amino]piperidin-1-yl}phenyl)sulfonyl]-amino}acetate] |  | 5 nM | (0.96) |  | (0.17) | 1000 nM | (0.48)

Further lines, results first:

melting point | EC50 [1] | beta-3 (IA) maximal response relative to isoproterenol [1] | EC50 [2] | beta-2 (IA) maximal response relative to isoproterenol [2] | EC50 [3] | beta-1 (IA) maximal response relative to isoproterenol [3] | SMILES
170 to 172 °C |  |  |  |  |  |  | CS(=O)(=O)Nc1cc([C@@H](O)CNC2CCN(c3ccc(S(=O)(=O)NCC(=O)O)cc3)CC2)ccc1O (as salt: salt) [Example 53, 2-{[(4-{4-[((2R)-2-hydroxy-2-{4-hydroxy-3-[(methylsulfonyl)amino]phenyl}ethyl)amino]-1-piperidinyl}phenyl)sulfonyl]amino}acetic Acid]
163 to 166 °C |  |  |  |  |  |  | CS(=O)(=O)Nc1cc([C@@H](O)CNC2CCN(c3ccc(S(=O)(=O)N(CC(=O)O)CC(=O)O)cc3)CC2)ccc1O (as salt: salt) [Example 55, 2-((Carboxymethyl)[(4-{4-[((2R)-2-hydroxy-2-{4-hydroxy-3-[(methylsulfonyl)amino]phenyl)ethyl)amino]-1-piperidinyl}phenyl)sulfonyl]amino}acetic Acid]
60 °C |  |  |  |  |  |  | COC(=O)N(CC(=O)O)S(=O)(=O)c1ccc(N2CCC(NC[C@H](O)c3ccc(O)c(NS(C)(=O)=O)c3)CC2)cc1 (as salt: salt) [Example 60, [[(4-{4-[((2R)-2-Hydroxy-2-{4-hydroxy-3-[(methylsulfonyl)amino]phenyl}-ethyl)amino]piperidin-1-yl}phenyl)sulfonyl](methoxycarbonyl)amino]acetic Acid]
 | 3 nM | (0.95) | 2000 nM | (0.43) | 12000 nM | (0.71) | CCOC(=O)CN(C(C)C)S(=O)(=O)c1ccc(N2CCC(NC[C@H](O)c3ccc(O)c(NS(C)(=O)=O)c3)CC2)cc1 [Example 44]
 | 34 nM | (1.2) |  | (0.23) |  | (0.24) | CS(=O)(=O)Nc1cc([C@@H](O)CNC2CCN(c3ccc(S(=O)(=O)NCC(=O)O)cc3)CC2)ccc1O [Example 53, 2-{[(4-{4-[((2R)-2-hydroxy-2-{4-hydroxy-3-[(methylsulfonyl)amino]phenyl}ethyl)amino]-1-piperidinyl}phenyl)sulfonyl]amino}acetic Acid]
 | 6 nM | (0.85) |  | (0.18) |  | (0.18) | COC(=O)CNS(=O)(=O)c1ccc(N2CCC(NC[C@H](O)c3ccc(O)c(NS(C)(=O)=O)c3)CC2)cc1 [Example 57, Methyl 2-{[(4-{4-[((2R)-2-Hydroxy-2-{4-hydroxy-3-[(methylsulfonyl)amino]-phenyl}ethyl)amino]-1-piperidinyl}phenyl)sulfonyl]amino}acetate]
 | 21 nM | (1.1) | 10000 nM | (0.21) | 10000 nM | (0.18) | COC(=O)N(CC(=O)O)S(=O)(=O)c1ccc(N2CCC(NC[C@H](O)c3ccc(O)c(NS(C)(=O)=O)c3)CC2)cc1 [Example 60, [[(4-{4-[((2R)-2-Hydroxy-2-{4-hydroxy-3-[(methylsulfonyl)amino]phenyl}-ethyl)amino]piperidin-1-yl}phenyl)sulfonyl](methoxycarbonyl)amino]acetic Acid]
